Laboratory results reported in US20110003753A1, “COMPOSITIONS AND METHODS FOR DISRUPTING THE FUNCTION OF THE TRANSCRIPTIONAL REPRESSOR COMPONENT Sin3A-PAH2 DOMAIN TO INDUCE DIFFERENTIATION AND GROWTH INHIBITION IN BREAST CANCER” (SAMUEL WAXMAN CANCER RESEARCH FOUNDATION, priority 2009, published 2011).

Columns and labels:
[1] = target: T1, PAH2 domain of Sin3A and MAD (Mus musculus, UniProt Q60520); assay: GST pull-down of MAD by the Sin3A PAH2 domain; type: binding
T1 construct: amino acids 306-450 of mSin3A; made in house; host or cells: E. coli (GST-PAH2); MAD from rabbit reticulocyte in vitro translation or immunoprecipitated from MDA-MB-231 lysate
T1 sequence (Q60520 306-450): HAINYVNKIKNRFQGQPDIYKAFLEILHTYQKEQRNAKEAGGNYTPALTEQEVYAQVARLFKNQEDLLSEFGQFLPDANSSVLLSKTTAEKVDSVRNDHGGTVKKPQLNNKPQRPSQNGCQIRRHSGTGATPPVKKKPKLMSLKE
Description: FIG. 2: SID decoy peptide blocks interactions between Sin3 PAH2 and MAD and interferes with recruitment of members of the Sin3 co-repressor complex. A. GST pull-down of MAD by the Sin3A PAH2 domain is blocked by SID peptide. Sin3A PAH2 domain (amino acids 306-450) was expressed in E. coli as a GST fusion and used in a pull down assay for in vitro interaction with 35S-methionine labeled MAD (left panel) or MAD immunoprecipitated from MDA-MB-231 cell lysates (right panel). 25% of input is shown for in vitro translated MAD and 10% of input for immunoprecipitated MAD (input). Assays were performed using 15 μM Tat-SID or Tat-SID^SCR peptide unless otherwise indicated. […]
GST pull-down assays were performed using the ProFound™ pull-down GST protein:protein interaction kit (Pierce) according to the manufacturer's instructions. […] Gels containing samples from MDA-MB-231 cell lysates were analyzed by Western immunoblot according to standard protocols. Pulled-down MAD was detected using mouse monoclonal anti-MAD (F-1) antibody (Santa Cruz), anti-mouse secondary antibody (Jackson ImmunoResearch), and enhanced chemiluminescence (ECL, Peirce).

[2] = system: Sin3B and MAD; assay: Mammalian two-hybrid assay, GAL4 DBD-Sin3B and VP16AD-MAD in 293T cells; type: cell-based; details: 15 μM peptide applied to the cell culture medium
Description: FIG. 2: SID decoy peptide blocks interactions between Sin3 PAH2 and MAD and interferes with recruitment of members of the Sin3 co-repressor complex. A. GST pull-down of MAD by the Sin3A PAH2 domain is blocked by SID peptide. Sin3A PAH2 domain (amino acids 306-450) was expressed in E. coli as a GST fusion and used in a pull down assay for in vitro interaction with 35S-methionine labeled MAD (left panel) or MAD immunoprecipitated from MDA-MB-231 cell lysates (right panel). 25% of input is shown for in vitro translated MAD and 10% of input for immunoprecipitated MAD (input). Assays were performed using 15 μM Tat-SID or Tat-SID^SCR peptide unless otherwise indicated. […] 293T cells were transfected with GAL4^uas×5-Tk-Luc reporter together with mammalian two-hybrid vectors expressing a fusion of Sin3B with GAL4 DNA binding domain (GAL4^DBD) and fusions of MAD and HDAC1 (columns 5-12 and 14-21, respectively) with VP16 activation domain (VP16^AD), as well as SID expression vectors, as indicated. […]
24 hours prior to transfection, 293T cells were plated at 50-60% confluence on 48-well plates. […] 48 hours post-transfection luciferase activity was measured using the Dual Luciferase assay system (Promega) on a Mithras LB940 plate reader (Berthold Technologies). […]

[3] = system: MDA-MB-231 cells; assay: Three-dimensional morphogenesis assay in Matrigel; type: cell-based, human; details: 5 μM peptide, Matrigel 3D culture
Description: FIG. 3: A. Morphogenesis in 3D cultures in Matrigel. MDA-MB-231 and MMTV-Myc cells expressing SID or the double mutant were cultured in 3D-Matrigel for 14 days. […] B. Reversion of the invasive phenotype of the MDA-MB-231 cells in Matrigel 3D cultures. Upper panel indicates change in numbers of invasive versus non invasive colonies (as indicated in crosshatched and non-crosshatched bars, respectively) in the presence of different concentrations (as indicated) of cell penetrating SID or SID^SCR (scrambled control) peptide. The colonies were counted after 10 days of treatment with a medium containing fresh peptide changed every 24 hours. […] The reduction in invasive phenotype was quantified by counting 5 low magnification fields per well done in triplicates (upper panel). The p value was calculated using the unpaired Student t test.
3D cultures of MDA-MB-231 and MMTV-Myc cells stably transfected with pEGFP-SID, pEGFP-SID2Mut or the parent vector pEGFP-N3 were prepared as described by Debnath et al. (Debnath et al2003). Briefly, […] of growth factor depleted Matrigel (BD Biosciences) was applied on 8-well multichamber slides (BD Biosciences) and incubated at 37° C. for 30 minutes. Once the Matrigel solidified 5×10^3 cells were seeded on top of the gels in assay medium containing 2% Matrigel and 20 ng/ml […]. Growth medium was changed daily for 14 days. Once colony formation was evident, the SID or the scramble control peptide was added to the MDA-MB-231 parental cells in the medium starting at day 3. The morphology of the colonies was determined by confocal microscopy. Induction of apoptosis was determined by staining colonies with activated caspase-3 antibody (BD Transduction Labs) and cell polarization by staining with anti-GM130 antibody (BD Transduction Labs). Cell nuclei were visualized by DAPI (Sigma) staining. […]

[4] = system: ERα and RARβ; assay: Re-expression of silenced genes in MDA-MB-231 cells; type: cell-based, human
Description: This finding coincides with the increased expression of E-cadherin and CRBP1, known RAR target genes and the induction of p27, highly sensitive to RAR activation. […] Thus, blocking specific sites of a component of a transcriptional repressor limited to few transcription factors can be used to induce a differentiation phenotype and anti-tumor effect in breast cancer and that these events may, impart new and/or restore therapeutic targets in breast cancer.

YGRKKRRQGGGVRMNIQMLLEAADYLERRER [SID peptide]
blocking of interaction between PAH2 domain of Sin3A and in vitro translated MAD ([1]; 35S-methionine labeled MAD, 15 μM peptide unless otherwise indicated): blocked interactions
blocking of interaction between PAH2 domain of Sin3A and MAD immunoprecipitated from MDA-MB-231 cells ([1]; MAD immunoprecipitated from MDA-MB-231 cell lysates, 15 μM peptide): blocked interactions
increase in luciferase activity compared to GAL4 DBD-Sin3B and VP16AD-MAD co-expression [2]: confirmed, albeit to a lesser degree
number and size of the colonies [3]: reduced
decrease in number of colonies with invasive phenotype ([3]; colonies counted after 10 days of treatment): ~80%
re-expression of ERα and RARβ [4]: induced the re-expression of ERα and RARβ
